Values of other authors in patent publication US20220288091A1, “Method for Improving Insulin Sensitivity” (priority 2019, published 2022).

Columns and labels:
Conditions in all cases: Miner et al.; cited from earlier work
[1] = biological target: T1, receptors for mineralocorticoids (Homo sapiens, UniProt P08235)
T1 sequence (P08235 1-984): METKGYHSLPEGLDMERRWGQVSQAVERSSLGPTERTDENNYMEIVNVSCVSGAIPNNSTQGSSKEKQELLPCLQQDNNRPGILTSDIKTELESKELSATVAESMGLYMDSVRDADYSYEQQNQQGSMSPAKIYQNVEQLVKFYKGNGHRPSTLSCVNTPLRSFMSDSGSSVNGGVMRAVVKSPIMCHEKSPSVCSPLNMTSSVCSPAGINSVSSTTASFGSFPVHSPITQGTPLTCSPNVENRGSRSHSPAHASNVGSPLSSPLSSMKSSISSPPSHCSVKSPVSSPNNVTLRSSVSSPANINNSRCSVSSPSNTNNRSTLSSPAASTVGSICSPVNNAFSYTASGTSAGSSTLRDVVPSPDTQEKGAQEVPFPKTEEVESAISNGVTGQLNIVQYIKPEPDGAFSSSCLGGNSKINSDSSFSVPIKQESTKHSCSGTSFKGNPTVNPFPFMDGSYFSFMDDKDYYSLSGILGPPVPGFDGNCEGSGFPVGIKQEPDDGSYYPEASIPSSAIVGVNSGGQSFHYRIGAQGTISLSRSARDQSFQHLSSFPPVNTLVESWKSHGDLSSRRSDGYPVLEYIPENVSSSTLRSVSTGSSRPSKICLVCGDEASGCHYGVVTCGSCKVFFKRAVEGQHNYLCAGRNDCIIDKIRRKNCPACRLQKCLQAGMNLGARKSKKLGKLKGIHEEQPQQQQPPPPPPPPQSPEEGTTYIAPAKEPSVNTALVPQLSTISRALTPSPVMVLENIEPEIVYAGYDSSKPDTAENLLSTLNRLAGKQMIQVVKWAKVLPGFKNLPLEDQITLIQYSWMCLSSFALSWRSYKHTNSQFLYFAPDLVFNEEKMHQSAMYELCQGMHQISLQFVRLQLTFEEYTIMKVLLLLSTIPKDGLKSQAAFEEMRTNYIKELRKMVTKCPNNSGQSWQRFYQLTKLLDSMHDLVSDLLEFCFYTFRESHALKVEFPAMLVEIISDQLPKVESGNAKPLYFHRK

receptors for progestins = biological target: T2, receptors for progestins (Homo sapiens, UniProt P06401)
T2 sequence (P06401 1-933): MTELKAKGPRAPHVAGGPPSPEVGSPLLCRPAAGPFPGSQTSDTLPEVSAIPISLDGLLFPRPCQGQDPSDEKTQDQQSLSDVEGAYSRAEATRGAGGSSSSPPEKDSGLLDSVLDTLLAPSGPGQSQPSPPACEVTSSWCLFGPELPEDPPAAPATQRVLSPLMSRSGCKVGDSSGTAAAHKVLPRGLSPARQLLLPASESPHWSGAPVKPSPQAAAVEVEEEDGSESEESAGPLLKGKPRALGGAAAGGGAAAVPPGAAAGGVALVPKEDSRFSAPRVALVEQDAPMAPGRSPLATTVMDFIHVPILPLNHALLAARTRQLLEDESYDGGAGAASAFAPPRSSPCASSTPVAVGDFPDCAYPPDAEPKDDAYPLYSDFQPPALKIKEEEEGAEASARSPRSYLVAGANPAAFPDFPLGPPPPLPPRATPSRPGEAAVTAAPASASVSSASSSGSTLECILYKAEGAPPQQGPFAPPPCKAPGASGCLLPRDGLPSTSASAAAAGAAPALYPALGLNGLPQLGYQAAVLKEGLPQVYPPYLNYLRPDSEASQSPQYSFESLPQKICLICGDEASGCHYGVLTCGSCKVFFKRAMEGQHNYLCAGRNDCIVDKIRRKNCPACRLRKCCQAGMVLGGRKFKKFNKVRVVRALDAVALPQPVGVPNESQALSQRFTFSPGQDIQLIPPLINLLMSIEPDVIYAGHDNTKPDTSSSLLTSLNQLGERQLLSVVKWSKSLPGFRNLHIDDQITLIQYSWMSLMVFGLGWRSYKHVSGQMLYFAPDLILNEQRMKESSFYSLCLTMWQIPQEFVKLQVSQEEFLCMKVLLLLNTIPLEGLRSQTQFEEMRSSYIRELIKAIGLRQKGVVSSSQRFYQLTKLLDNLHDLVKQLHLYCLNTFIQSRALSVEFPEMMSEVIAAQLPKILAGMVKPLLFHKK

GR = biological target: T3, GR (Homo sapiens, UniProt P04150)
T3 sequence (P04150 1-777): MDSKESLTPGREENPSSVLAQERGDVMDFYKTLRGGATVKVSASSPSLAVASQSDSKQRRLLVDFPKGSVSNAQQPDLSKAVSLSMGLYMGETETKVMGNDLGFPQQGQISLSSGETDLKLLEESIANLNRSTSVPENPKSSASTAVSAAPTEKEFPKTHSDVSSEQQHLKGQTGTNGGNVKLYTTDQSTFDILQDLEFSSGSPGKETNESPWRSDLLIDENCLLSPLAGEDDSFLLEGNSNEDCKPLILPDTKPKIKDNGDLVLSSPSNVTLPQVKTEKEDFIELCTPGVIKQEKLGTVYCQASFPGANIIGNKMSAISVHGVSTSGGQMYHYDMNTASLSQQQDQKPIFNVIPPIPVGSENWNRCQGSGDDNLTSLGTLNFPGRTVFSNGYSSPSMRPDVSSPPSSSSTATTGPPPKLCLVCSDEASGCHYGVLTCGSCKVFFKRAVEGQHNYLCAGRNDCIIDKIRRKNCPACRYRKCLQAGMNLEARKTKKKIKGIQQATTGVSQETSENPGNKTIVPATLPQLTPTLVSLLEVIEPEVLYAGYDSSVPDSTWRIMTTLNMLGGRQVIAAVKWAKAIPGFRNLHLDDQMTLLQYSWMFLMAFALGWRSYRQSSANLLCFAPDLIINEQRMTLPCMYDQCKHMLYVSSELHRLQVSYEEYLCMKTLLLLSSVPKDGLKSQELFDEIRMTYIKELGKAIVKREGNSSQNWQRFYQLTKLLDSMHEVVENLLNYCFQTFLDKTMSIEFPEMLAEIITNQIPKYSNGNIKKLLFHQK

receptors for estrogens = tested on: receptors for estrogens
receptors for androgens = biological target: T4, receptors for androgens (Homo sapiens, UniProt P10275)
T4 sequence (P10275 1-920): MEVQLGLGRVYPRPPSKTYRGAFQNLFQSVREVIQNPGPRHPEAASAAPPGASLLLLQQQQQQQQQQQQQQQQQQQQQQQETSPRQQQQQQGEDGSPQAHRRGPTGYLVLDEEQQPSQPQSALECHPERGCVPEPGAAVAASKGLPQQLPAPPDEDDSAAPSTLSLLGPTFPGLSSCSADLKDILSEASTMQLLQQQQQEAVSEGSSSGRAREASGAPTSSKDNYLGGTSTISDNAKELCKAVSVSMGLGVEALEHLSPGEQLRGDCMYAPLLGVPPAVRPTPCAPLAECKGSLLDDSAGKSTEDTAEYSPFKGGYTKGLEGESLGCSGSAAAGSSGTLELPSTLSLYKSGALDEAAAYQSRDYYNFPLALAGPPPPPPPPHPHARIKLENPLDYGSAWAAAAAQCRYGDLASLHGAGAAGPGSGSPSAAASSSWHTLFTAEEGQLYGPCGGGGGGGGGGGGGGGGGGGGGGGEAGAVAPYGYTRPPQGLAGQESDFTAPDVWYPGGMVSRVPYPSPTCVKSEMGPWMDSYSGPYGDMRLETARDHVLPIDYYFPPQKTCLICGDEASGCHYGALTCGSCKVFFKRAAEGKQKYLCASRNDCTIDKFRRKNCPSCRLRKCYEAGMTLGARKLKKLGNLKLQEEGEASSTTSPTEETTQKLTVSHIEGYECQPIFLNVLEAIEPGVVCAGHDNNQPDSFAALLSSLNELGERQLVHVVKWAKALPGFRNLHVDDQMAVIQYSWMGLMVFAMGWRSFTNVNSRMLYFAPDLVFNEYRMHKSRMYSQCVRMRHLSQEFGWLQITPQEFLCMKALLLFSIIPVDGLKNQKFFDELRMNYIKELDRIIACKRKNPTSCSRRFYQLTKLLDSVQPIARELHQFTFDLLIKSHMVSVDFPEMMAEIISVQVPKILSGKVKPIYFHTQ

With CN(C)c1ccc(C(c2ccc(N(C)C)cc2)c2cc([N+](=O)[O-])ccc2Cl)cc1 [[bis(4-N,N-dimethylaminophenyl)(2-chloro-5-nitrophenyl)methane]] as the compound, how does the “Affinity for mineralocorticoid receptor” value [1] read?
Its value is “no detectable affinity”.

What about the “Affinity for progestin receptor” value (receptors for progestins) of the same compound?
The value was “no detectable affinity”.

And the “Affinity for the GR” value (GR)?
The value was “nanomolar affinity”.

And the “Affinity for estrogen receptor” value (receptors for estrogens)?
Its value is “no detectable affinity”.

What about the “Affinity for androgen receptor” value (receptors for androgens) of the same compound?
The value was “no detectable affinity”.
